Source: US9233979B2, “Compounds that are ERK inhibitors” (Merck Sharp & Dohme Corp., priority 2012, dated 2016)

Target: phosphorylated active hERK2 enzyme (Homo sapiens (Human), UniProt P28482)
Assay: Active Human ERK2 (hERK2) Activity Assay (IMAP-FP)
Format: biochemical
Conditions: Table 6, 0.5 nM hERK2, 30 μM ATP, 10 point titration, read-out: AERK2 IC50
In short: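 IMAP fluorescence-polarization kinase assay: 0.5 nM activated hERK2 with 900 nM unlabeled plus 80 nM labeled peptide and 30 μM ATP, reacted 60 min. Quenched with IMAP beads in binding buffer with 24 mM NaCl; FP read after 60 min equilibration.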

phosphorylated active hERK2 enzyme, sequence (P28482 whole entry): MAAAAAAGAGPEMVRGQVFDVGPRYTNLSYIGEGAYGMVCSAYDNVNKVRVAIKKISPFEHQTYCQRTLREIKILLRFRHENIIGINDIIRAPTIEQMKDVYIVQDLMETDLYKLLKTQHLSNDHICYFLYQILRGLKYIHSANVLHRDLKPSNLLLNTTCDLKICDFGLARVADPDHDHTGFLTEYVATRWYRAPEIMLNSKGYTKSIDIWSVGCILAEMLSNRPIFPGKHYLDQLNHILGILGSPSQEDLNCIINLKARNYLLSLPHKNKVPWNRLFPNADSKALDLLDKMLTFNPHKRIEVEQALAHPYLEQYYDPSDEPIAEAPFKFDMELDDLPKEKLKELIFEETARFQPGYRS

Structure (SMILES)	IC50 [nM]
COc1nc(NC(=O)N[C@H](C)c2ccccc2)cc2[nH]nc(N)c12 [Example 452, 1-(3-amino-4-methoxy-1H-pyrazolo[4,3-c]-pyridin-6-yl)-3-[(1R)-1-phenylethyl]urea]	0.7
C[C@@H](NC(=O)Nc1cc2[nH]nc(N3CC4CCC(C3)O4)c2cn1)c1ccccc1 [Example 453, 1-[3-(8-oxa-3-azabicyclo[3.2.1]-oct-3-yl)-1H-pyrazolo[4,3-c]-pyridin-6-yl]-3-[(1R)-1-phenylethyl]urea]	3.4
CCNc1n[nH]c2cc(NC(=O)N[C@H](C)c3ccccc3)nc(Cl)c12 [Example 454, 1-[4-chloro-3-(ethylamino)-1H-pyrazolo[4,3-c]pyridin-6-yl]-3-[(1R)-1-phenylethyl]urea]	11.8
CC(C)(O)[C@@H](NC(=O)Nc1cc2[nH]nc(NC(=O)N3C[C@H]4COC[C@H]4C3)c2cn1)c1ccc(F)cc1 [Example 457, (3aR,6aS)-N-(6-(3-((S)-1-(4-fluorophenyl)-2-hydroxy-2-methylpropyl)-ureido)-1H-pyrazolo[4,3-c]-pyridin-3-yl)-tetrahydro-1H-furo[3,4-c]pyrrole-5(3H)-carboxamide]	3.7
C[C@@H](NC(=O)Nc1cc2[nH]nc(NC(=O)N3C[C@H]4COC[C@H]4C3)c2cn1)c1ccc(F)cc1 [Example 458, (3aR,6aS)-N-(6-(3-((R)-1-(4-fluorophenyl)ethyl)ureido)-1H-pyrazolo[4,3-c]pyridin-3-yl)tetrahydro-1H-furo[3,4-c]pyrrole-5(3H)-carboxamide]	14.3

Next, values leading:

IC50 [nM]	Structure (SMILES)
4.3	O=C(Nc1cc2[nH]nc(N3CC4CC3CO4)c2cn1)N[C@H](CO)c1ccccc1 (stereo partly drawn) [Example 450, 1-[(1S)-2-hydroxy-1-phenylethyl]-3-[3-(2-oxa-5-azabicyclo[2.2.1]-hept-5-yl)-1H-pyrazolo[4,3-c]-pyridin-6-yl]urea]
3	COC[C@@H](NC(=O)Nc1cc2[nH]nc(N3CC4CC3CO4)c2cn1)c1ccccc1 (stereo partly drawn) [Example 451, 1-[(1S)-2-methoxy-1-phenylethyl]-3-[3-(2-oxa-5-azabicyclo[2.2.1]-hept-5-yl)-1H-pyrazolo[4,3-c]-pyridin-6-yl]urea]
